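Growth conditions: 96-well plates. Treatment: test compound, 48 hours, 5 concentrations. Analysis: linear interpolation between bracketing concentrations; unreached endpoints set to highest concentration. GI50 marks 50% less growth.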 The source made the active and inactive calls. Cut-off read from the data, not from the text of the source: active = GI50 up to about 1.1 µM and inactive = higher. Where only a bound is given, the exact number is not on record here.

Among the test systems are NCI-H522; MDA-MB-231; HCT-15; COLO 205; NCI-H226; TK-10; SF-539; SNB-75; UACC-62; HT-29; HOP-62; IGROV-1; OVCAR-5; MDA-N; HCT-116; MDA-MB-435; NCI-H460; SR; NCI/ADR-RES.
Test in all cases: NCI tumour cell line growth inhibition, 48 h

Take `CN1CCC23c4c5ccc(Oc6nnnn6-c6ccccc6)c4OC2c2[nH]c4ccccc4c2CC3(O)C1C5` (centres undefined): the GI50 is 2 µM (inactive) with NCI-H522; 1.81 µM (inactive) in the assay on MDA-MB-231; 2.43 µM in the assay with HCT-15; 2.29 µM (inactive) in the assay with COLO 205; 10.8 µM (inactive) in the assay with NCI-H226; 1.87 µM (inactive) with TK-10. For the same compound, the GI50 in the assay with SF-539 is 2.62 µM (inactive); with SNB-75 it was 2.59 µM (inactive); in the assay with UACC-62, 1.8 µM (inactive); in the assay with HT-29, 2.38 µM (inactive); with HOP-62, 3.24 µM (inactive); with IGROV-1, 8.83 µM (inactive). Moreover, the GI50 was 17.2 µM (inactive) in the assay with OVCAR-5; 1.73 µM (inactive) in the assay on MDA-N; 1.83 µM (inactive) in the assay on HCT-116; 4.01 µM (inactive) in the assay on MDA-MB-435; 1.85 µM (inactive) with NCI-H460; 1.64 µM (inactive) in the assay with SR. Moreover, in the assay on NCI/ADR-RES, the GI50 was 5.37 µM (inactive).
Turning to `CC1=C(Nc2c(C)cc(O)cc2O)C(=O)C=c2oc3c(c21)C(C)=C(Nc1c(C)cc(O)cc1O)C(=O)C=3`, the GI50 was 20.1 µM (inactive) in the assay on NCI-H522; 36.6 µM (inactive) with MDA-MB-231; 46.6 µM in the assay with HCT-15; 20.8 µM (inactive) in the assay on COLO 205; 43.9 µM (inactive) in the assay on NCI-H226; 94.8 µM (inactive) in the assay on TK-10. The GI50 in the assay with SF-539 was 19.5 µM (inactive); in the assay on SNB-75 it was 25.6 µM (inactive); in the assay on UACC-62, 37.2 µM (inactive); in the assay with HT-29 it was 28 µM (inactive); in the assay with HOP-62, 32.8 µM (inactive); with IGROV-1, 30.1 µM (inactive). In addition, the GI50 in the assay on OVCAR-5 is 47.5 µM (inactive); with MDA-N, 18.6 µM (inactive); with HCT-116, 26.5 µM (inactive); with MDA-MB-435, 15.9 µM (inactive); with NCI-H460, 30.3 µM (inactive); in the assay on SR it was 0.0313 µM (active). Further, the GI50 in the assay on NCI/ADR-RES is > 100 µM (inactive).
As for `Cc1ccc([C@H]2CC(=O)C[C@H](c3ccc(C)cc3)C23C(=O)c2ccccc2C3=O)cc1`, the GI50 with NCI-H522 was 3.23 µM (inactive); in the assay with MDA-MB-231 it was 54.7 µM (inactive); in the assay on HCT-15 it was 34.8 µM; in the assay with COLO 205 it was 37.2 µM (inactive); in the assay with NCI-H226 it was 34.5 µM (inactive); with TK-10, 22.2 µM (inactive). Besides, the GI50 was 32.4 µM (inactive) with SF-539; 15.8 µM (inactive) in the assay with SNB-75; 37.7 µM (inactive) in the assay with UACC-62; 67.3 µM (inactive) with HT-29; 22.1 µM (inactive) in the assay on HOP-62; 40 µM (inactive) in the assay with IGROV-1. Besides, the GI50 with OVCAR-5 was > 100 µM (inactive); with MDA-N it was 52.8 µM (inactive); in the assay with HCT-116 it was 34.6 µM (inactive); in the assay on MDA-MB-435, 41.3 µM (inactive); in the assay on NCI-H460, 47.2 µM (inactive); in the assay with SR, 13.2 µM (inactive). Moreover, in the assay on NCI/ADR-RES, the GI50 was 10.1 µM (inactive).
As to `COc1cc2cc(C(=O)N3CC(COS(C)(=O)=O)c4c3cc(N)c3ccccc43)[nH]c2c(OC)c1OC` (centres undefined), the GI50 in the assay with NCI-H522 is 0.0146 µM (active); with MDA-MB-231, < 0.01 µM (active); with HCT-15, less than 0.0206 µM; with COLO 205, 0.0244 µM (active); with NCI-H226, 0.0469 µM (active); in the assay with TK-10, < 0.01 µM (active). The GI50 in the assay on SF-539 is 0.0177 µM (active); in the assay on SNB-75, < 0.01 µM (active); in the assay on UACC-62, 0.0146 µM (active); with HT-29 it was < 0.01 µM (active); in the assay on HOP-62, 0.0191 µM (active); with IGROV-1, 0.0228 µM (active). Moreover, the GI50 in the assay with OVCAR-5 was 0.021 µM (active); with MDA-N it was 0.0195 µM (active); in the assay on HCT-116, 0.0108 µM (active); in the assay with MDA-MB-435 it was 0.0152 µM (active); with NCI-H460, < 0.01 µM (active); in the assay with SR it was < 0.01 µM (active). The GI50 in the assay on NCI/ADR-RES was 0.0123 µM (active).
In the case of `c1ccc2c(c1)Nc1c3ccccc3nc3cccc-2c13`, the GI50 in the assay on NCI-H522 is 1.23 µM (inactive); in the assay with MDA-MB-231, 0.923 µM (active); in the assay on HCT-15, 0.632 µM; with COLO 205, 0.857 µM (active); with NCI-H226, 2.01 µM (inactive); with TK-10, 1.73 µM (inactive). The GI50 with SF-539 was 1.6 µM (inactive); with SNB-75 it was 1.65 µM (inactive); in the assay with UACC-62 it was 1.63 µM (inactive); in the assay with HT-29 it was 0.546 µM (active); with HOP-62, 1.02 µM (active); in the assay on IGROV-1 it was 1.21 µM (inactive). Besides, the GI50 is 1.43 µM (inactive) in the assay on OVCAR-5; 1.17 µM (inactive) in the assay with MDA-N; 0.499 µM (active) in the assay on HCT-116; 1.61 µM (inactive) with MDA-MB-435; 0.378 µM (active) in the assay on NCI-H460; 0.462 µM (active) with SR. In addition, in the assay on NCI/ADR-RES, the GI50 was 1.05 µM (active).
With `CC(C)(C)NCCC(O)c1cc(C(F)(F)F)nc2c(C(F)(F)F)cccc12` (centres undefined), the GI50 was 11.7 µM (inactive) in the assay on NCI-H522; 9.4 µM (inactive) with MDA-MB-231; 6.41 µM in the assay on HCT-15; 10.7 µM (inactive) in the assay with COLO 205; 17.3 µM (inactive) with NCI-H226; 12.2 µM (inactive) with TK-10. Besides, the GI50 in the assay with SF-539 is 14.7 µM (inactive); in the assay on SNB-75, 11.1 µM (inactive); in the assay on UACC-62, 12.6 µM (inactive); in the assay on HT-29, 6.08 µM (inactive); in the assay with HOP-62, 4.67 µM (inactive); with IGROV-1 it was 10.3 µM (inactive). In addition, the GI50 is 15.2 µM (inactive) with OVCAR-5; 11.5 µM (inactive) in the assay with MDA-N; 5.07 µM (inactive) with HCT-116; 12.9 µM (inactive) in the assay with MDA-MB-435; 4.83 µM (inactive) in the assay on NCI-H460; 3.62 µM (inactive) in the assay with SR. In the assay with NCI/ADR-RES, the GI50 was 5.97 µM (inactive).
Take `O=C(Nc1ccc(Cl)cc1)c1cc2c(cc1Cl)Sc1nccn1S2(=O)=O`: the GI50 in the assay with NCI-H522 was 57.1 µM (inactive); in the assay on MDA-MB-231, 43.7 µM (inactive); with HCT-15 it was 35.7 µM; in the assay on COLO 205 it was > 100 µM (inactive); in the assay with NCI-H226, 51.3 µM (inactive); with SF-539, 50.2 µM (inactive). Also, the GI50 in the assay with SNB-75 was 3.4 µM (inactive); with HT-29, > 100 µM (inactive); with HOP-62, 33.7 µM (inactive); in the assay on IGROV-1, 60.1 µM (inactive); in the assay on OVCAR-5, > 100 µM (inactive); with MDA-N it was 28.8 µM (inactive). Also, the GI50 in the assay with HCT-116 is 34.6 µM (inactive); in the assay with MDA-MB-435, 4.42 µM (inactive); in the assay on NCI-H460, 42.5 µM (inactive); with SR it was > 100 µM (inactive); with NCI/ADR-RES, 56.5 µM (inactive).
`O=C1CCC2(CCO1)OCCO2`: the GI50 was > 100 µM (inactive) in the assay on NCI-H522; > 100 µM (inactive) in the assay with MDA-MB-231; greater than 100 µM with HCT-15; > 100 µM (inactive) in the assay with NCI-H226; > 100 µM (inactive) with TK-10; > 100 µM (inactive) with SF-539. In addition, the GI50 in the assay with SNB-75, with UACC-62, in the assay on HT-29, in the assay on HOP-62, in the assay with IGROV-1 and in the assay with OVCAR-5 was > 100 µM (inactive) each time. Besides, the GI50 in the assay on MDA-N, with HCT-116, in the assay on MDA-MB-435, in the assay on NCI-H460, in the assay on SR and in the assay on NCI/ADR-RES was > 100 µM (inactive) throughout.
For the compound `CC(=O)NNc1nc(C)c(C(/C=C/c2ccccc2O)=N/N=C(N)N)s1`, the GI50 in the assay on NCI-H522 is > 100 µM (inactive); with MDA-MB-231, > 100 µM (inactive); in the assay on HCT-15, greater than 100 µM; with COLO 205, > 100 µM (inactive); in the assay with NCI-H226, > 100 µM (inactive); with TK-10 it was > 100 µM (inactive). The GI50 in the assay with SF-539, in the assay with SNB-75, with UACC-62, in the assay with HT-29, in the assay on HOP-62 and in the assay on IGROV-1 was > 100 µM (inactive) each time. The GI50 with OVCAR-5, with MDA-N, in the assay with HCT-116, in the assay with MDA-MB-435, in the assay on NCI-H460 and in the assay on SR was > 100 µM (inactive) throughout. Besides, in the assay with NCI/ADR-RES, the GI50 is > 100 µM (inactive).
Regarding `CCOC(=O)C(C(=O)OCC)=C1SC(=N\c2ccccc2)/C(=N/c2ccccc2)N1c1ccccc1`, the GI50 with NCI-H522 was 76.6 µM (inactive); in the assay with MDA-MB-231 it was > 100 µM (inactive); in the assay with HCT-15, greater than 100 µM; with COLO 205, > 100 µM (inactive); with NCI-H226, > 100 µM (inactive); in the assay on SF-539 it was > 100 µM (inactive). The GI50 with SNB-75 was > 100 µM (inactive); in the assay with UACC-62, 53.6 µM (inactive); in the assay on HT-29 it was 82.2 µM (inactive); in the assay on HOP-62, 34.2 µM (inactive); in the assay with IGROV-1 it was > 100 µM (inactive); with OVCAR-5, > 100 µM (inactive). The GI50 with MDA-N, with HCT-116, in the assay with MDA-MB-435, in the assay with NCI-H460, in the assay with SR and in the assay on NCI/ADR-RES was > 100 µM (inactive) throughout.
For the compound `CCOC(=O)c1c(N2CCOCC2)[nH]c(=O)c(C(c2cccs2)c2c(O)c(C(=O)OCC)c(N3CCOCC3)[nH]c2=O)c1O`, the GI50 with NCI-H522 is > 100 µM (inactive); in the assay with MDA-MB-231, > 100 µM (inactive); in the assay with HCT-15 it was greater than 100 µM; in the assay on COLO 205, > 100 µM (inactive); in the assay with NCI-H226, > 100 µM (inactive); in the assay with TK-10, > 100 µM (inactive). Besides, the GI50 in the assay with SF-539, in the assay with SNB-75, in the assay on UACC-62, in the assay with HT-29, in the assay with HOP-62 and in the assay with OVCAR-5 was > 100 µM (inactive) in each case. The GI50 in the assay on MDA-N, in the assay with HCT-116, with MDA-MB-435, in the assay with NCI-H460, in the assay on SR and in the assay on NCI/ADR-RES was > 100 µM (inactive) throughout.

The values above are taken from ChEMBL document CHEMBL1201862, “PubChem BioAssay data set” (2004).
